The record followed here is ChEMBL document CHEMBL1127771, “Structure-activity relationships in a series of monocyclic endothelin analogues” (Bioorg Med Chem Lett, 1994).

Assay [1] concerns the target T1, Endothelin receptor type B (Rattus norvegicus, UniProt P21451).
T1 sequence (P21451 whole entry): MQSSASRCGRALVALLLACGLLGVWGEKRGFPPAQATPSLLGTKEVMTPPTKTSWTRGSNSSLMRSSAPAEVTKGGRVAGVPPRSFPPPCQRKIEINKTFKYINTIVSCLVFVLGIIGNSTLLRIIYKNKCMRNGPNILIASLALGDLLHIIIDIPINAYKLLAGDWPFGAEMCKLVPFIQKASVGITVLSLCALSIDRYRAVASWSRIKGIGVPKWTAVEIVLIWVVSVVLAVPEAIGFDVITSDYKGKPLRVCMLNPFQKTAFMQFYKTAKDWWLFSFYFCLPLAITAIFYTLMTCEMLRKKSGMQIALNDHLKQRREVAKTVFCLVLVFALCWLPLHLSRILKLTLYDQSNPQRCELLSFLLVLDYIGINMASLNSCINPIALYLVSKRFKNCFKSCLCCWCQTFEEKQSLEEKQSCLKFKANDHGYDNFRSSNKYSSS
Nature of the assay: Binding affinity against Endothelin B receptor in rat cerebellar membrane (ET-B) from adult blue laurie rat. The assay is classed as cell membranes, Cerebellum.

The next assay deals with T2, Endothelin-1 receptor (Rattus norvegicus, UniProt P26684).
T2 sequence (P26684 whole entry): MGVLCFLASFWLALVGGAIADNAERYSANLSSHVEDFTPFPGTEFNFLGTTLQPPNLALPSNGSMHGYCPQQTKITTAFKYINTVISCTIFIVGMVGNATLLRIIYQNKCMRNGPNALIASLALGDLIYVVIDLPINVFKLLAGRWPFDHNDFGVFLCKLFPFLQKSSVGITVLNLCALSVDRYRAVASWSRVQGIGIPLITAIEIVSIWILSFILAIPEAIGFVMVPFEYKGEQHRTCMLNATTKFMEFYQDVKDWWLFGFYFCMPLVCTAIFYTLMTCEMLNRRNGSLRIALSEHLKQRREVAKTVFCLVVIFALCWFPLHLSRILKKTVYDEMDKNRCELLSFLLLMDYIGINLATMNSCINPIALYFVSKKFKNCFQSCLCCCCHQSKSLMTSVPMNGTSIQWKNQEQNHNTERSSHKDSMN
Nature of the assay: In vitro binding affinity against Endothelin A receptor by using endothelin (ET-1) as radioligand in rat heart ventricle.

A further assay is filed under the species Rattus norvegicus. Nature of the assay: Inhibition of ET-1 induced accumulation of inositol phosphates (IP-3) in rat skin fibroblasts. Type of assay: functional.
Assay [2] has as its target T1, Endothelin receptor type B. Nature of the assay: Binding affinity against endothelin receptor in rat cerebellar membrane (ET-B) from adult blue laurie rat. The assay is classed as cell membranes, Cerebellum.

Where a SMILES comes first, the peptide text is derived from it. Bridges are numbered along the chain shown (N, C = ends). [ ]: non-standard residue; d: D form. Aoc = NCCCCCCCC(=O)O; Ava = NCCCCC(=O)O A value given as a limit tells only on which side of the number the result lay.

Regarding `CC[C@H](C)[C@H](NC(=O)[C@H](CC(=O)O)NC(=O)[C@H](CC(C)C)NC(=O)[C@H](Cc1c[nH]cn1)NC(=O)[C@@H]1CSSC[C@H](N)C(=O)N[C@@H](CO)C(=O)N[C@@H](CC(=O)O)C(=O)N[C@@H](CCCCN)C(=O)N[C@@H](CCC(=O)O)C(=O)N[C@@H](C(C)C)C(=O)N[C@@H](Cc2ccc(O)cc2)C(=O)N[C@@H](Cc2ccccc2)C(=O)N1)C(=O)N[C@H](C(=O)N[C@@H](Cc1c[nH]c2ccccc12)C(=O)O)[C@@H](C)CC` (H-CSDKEVYFCHLDIIW-OH; disulfide 1-9) [listing 1 of 2 here], the IC50 – broadly, the concentration that gives 50% inhibition – in assay [1] turned out to be 1100 nM; at Endothelin-1 receptor it was 3500 nM. `CC[C@H](C)[C@H](NC(=O)[C@H](CC(=O)O)NC(=O)[C@H](CC(C)C)NC(=O)[C@H](Cc1c[nH]cn1)NC(=O)[C@@H]1CSSC[C@H](N)C(=O)N[C@@H](CO)C(=O)NCCCCCCCC(=O)N[C@@H](C(C)C)C(=O)N[C@@H](Cc2ccc(O)cc2)C(=O)N[C@@H](Cc2ccccc2)C(=O)N1)C(=O)N[C@H](C(=O)N[C@@H](Cc1c[nH]c2ccccc12)C(=O)O)[C@@H](C)CC` (H-CS[Aoc]VYFCHLDIIW-OH; disulfide 1-7) returned an IC50 in the assay filed under Rattus norvegicus of 3 µM. Consider `CC[C@H](C)[C@H](NC(=O)[C@H](CC(=O)O)NC(=O)[C@H](CC(C)C)NC(=O)[C@H](Cc1c[nH]cn1)NC(=O)[C@@H]1CSSC[C@H](N)C(=O)N[C@@H](CO)C(=O)N[C@@H](C(C)C)C(=O)N[C@@H](Cc2ccc(O)cc2)C(=O)N[C@@H](Cc2ccccc2)C(=O)N1)C(=O)N[C@H](C(=O)N[C@@H](Cc1c[nH]c2ccccc12)C(=O)O)[C@@H](C)CC` (H-CSVYFCHLDIIW-OH; disulfide 1-6), for which the figures for the IC50 (in assay [1]; on Endothelin-1 receptor) were 1700 nM and 2800 nM, respectively. Regarding `CC[C@H](C)[C@H](NC(=O)[C@H](CC(=O)O)NC(=O)[C@H](CC(C)C)NC(=O)[C@H](Cc1c[nH]cn1)NC(=O)[C@@H]1CSSC[C@H](N)C(=O)N[C@@H](CO)C(=O)N[C@@H](CO)C(=O)N[C@@H](C(C)C)C(=O)N[C@@H](Cc2ccc(O)cc2)C(=O)N[C@@H](Cc2ccccc2)C(=O)N1)C(=O)N[C@H](C(=O)N[C@@H](Cc1c[nH]c2ccccc12)C(=O)O)[C@@H](C)CC` (H-CSSVYFCHLDIIW-OH; disulfide 1-7), the IC50 in assay [1] is 1400 nM; on Endothelin-1 receptor, 1800 nM.

As to `CC[C@H](C)[C@H](NC(=O)[C@H](CC(=O)O)NC(=O)[C@H](CC(C)C)NC(=O)[C@H](Cc1cnc[nH]1)NC(=O)[C@@H]1CSSC[C@H](N)C(=O)N[C@@H](CO)C(=O)N[C@@H](CO)C(=O)N[C@@H](CC(C)C)C(=O)N[C@@H](CCSC)C(=O)N[C@@H](CC(=O)O)C(=O)N[C@@H](CCCCN)C(=O)N[C@@H](CCC(=O)O)C(=O)N1)C(=O)N[C@H](C(=O)N[C@@H](Cc1c[nH]c2ccccc12)C(=O)O)[C@@H](C)CC` (H-CSSLMDKECHLDIIW-OH; disulfide 1-9), the values for the IC50 (at Endothelin-1 receptor; in assay [2]) were 49000 nM and more than 10000 nM, respectively.

With `CC[C@H](C)[C@H](NC(=O)[C@H](CC(=O)O)NC(=O)[C@H](CC(C)C)NC(=O)[C@H](Cc1c[nH]cn1)NC(=O)[C@@H]1CSSC[C@H](N)C(=O)N[C@@H](CO)C(=O)N[C@@H](CC(=O)O)C(=O)N[C@@H](CCCCN)C(=O)N[C@@H](CCC(=O)O)C(=O)N[C@@H](C(C)C)C(=O)N[C@@H](Cc2ccc(O)cc2)C(=O)N[C@@H](Cc2ccccc2)C(=O)N1)C(=O)N[C@H](C(=O)N[C@@H](Cc1c[nH]c2ccccc12)C(=O)O)[C@@H](C)CC` (H-CSDKEVYFCHLDIIW-OH; disulfide 1-9) [listing 2 of 2 here], in the assay filed under Rattus norvegicus, the IC50 is more than 10 µM.

`CC[C@H](C)[C@H](NC(=O)[C@H](CC(=O)O)NC(=O)[C@H](CC(C)C)NC(=O)[C@H](Cc1c[nH]cn1)NC(=O)[C@@H]1CSSC[C@H](N)C(=O)N[C@@H](CO)C(=O)NCCCCCCC(=O)N[C@@H](C(C)C)C(=O)N[C@@H](Cc2ccc(O)cc2)C(=O)N[C@@H](Cc2ccccc2)C(=O)N1)C(=O)N[C@H](C(=O)N[C@@H](Cc1c[nH]c2ccccc12)C(=O)O)[C@@H](C)CC` [listing 1 of 2 here] showed an IC50 in the assay listed under Rattus norvegicus of 8 µM. With `CC[C@H](C)[C@H](NC(=O)[C@H](CC(=O)O)NC(=O)[C@H](CC(C)C)NC(=O)[C@H](Cc1cnc[nH]1)NC(=O)[C@@H]1CSSC[C@H](N)C(=O)N[C@@H](CO)C(=O)NCCCCCCCC(=O)N[C@@H](C(C)C)C(=O)N[C@@H](Cc2ccc(O)cc2)C(=O)N[C@@H](Cc2ccccc2)C(=O)N1)C(=O)N[C@H](C(=O)N[C@@H](Cc1c[nH]c2ccccc12)C(=O)O)[C@@H](C)CC` (H-CS[Aoc]VYFCHLDIIW-OH; disulfide 1-7), the values for the IC50 (in assay [1]; at Endothelin-1 receptor) were 240 nM and 1600 nM, respectively. On Endothelin-1 receptor, `CC[C@H](C)[C@H](NC(=O)[C@H](CC(=O)O)NC(=O)[C@H](CC(C)C)NC(=O)[C@H](Cc1c[nH]cn1)NC(=O)[C@@H]1CSSC[C@H](N)C(=O)N[C@@H](CO)C(=O)NCCCCCCC(=O)N[C@@H](C(C)C)C(=O)N[C@@H](Cc2ccc(O)cc2)C(=O)N[C@@H](Cc2ccccc2)C(=O)N1)C(=O)N[C@H](C(=O)N[C@@H](Cc1c[nH]c2ccccc12)C(=O)O)[C@@H](C)CC` [listing 2 of 2 here] showed an IC50 of 2500 nM. With `CC[C@H](C)[C@H](NC(=O)[C@H](CC(=O)O)NC(=O)[C@H](CC(C)C)NC(=O)[C@H](Cc1c[nH]cn1)NC(=O)[C@@H]1CSSC[C@H](N)C(=O)N[C@@H](CO)C(=O)N[C@@H](CO)C(=O)N[C@@H](CO)C(=O)N[C@@H](C(C)C)C(=O)N[C@@H](Cc2ccc(O)cc2)C(=O)N[C@@H](Cc2ccccc2)C(=O)N1)C(=O)N[C@H](C(=O)N[C@@H](Cc1c[nH]c2ccccc12)C(=O)O)[C@@H](C)CC` (H-CSSSVYFCHLDIIW-OH; disulfide 1-8), the IC50 in assay [1] worked out at 60 nM; at Endothelin-1 receptor it was 1200 nM; in the assay filed under Rattus norvegicus, 5 µM. Take `CC[C@H](C)[C@H](NC(=O)[C@H](CC(=O)O)NC(=O)[C@H](CC(C)C)NC(=O)[C@H](Cc1c[nH]cn1)NC(=O)[C@@H]1CSSC[C@H](N)C(=O)N[C@@H](CO)C(=O)NCCCCC(=O)N[C@@H](C(C)C)C(=O)N[C@@H](Cc2ccc(O)cc2)C(=O)N[C@@H](Cc2ccccc2)C(=O)N1)C(=O)N[C@H](C(=O)N[C@@H](Cc1c[nH]c2ccccc12)C(=O)O)[C@@H](C)CC` (H-CS[Ava]VYFCHLDIIW-OH; disulfide 1-7): the figures for the IC50 (at Endothelin-1 receptor; in the assay listed under Rattus norvegicus; in assay [2]) were 1800 nM, more than 10 µM and 350 nM, respectively. With `CC[C@H](C)[C@H](NC(=O)[C@H](CC(=O)O)NC(=O)[C@H](CC(C)C)NC(=O)[C@H](Cc1c[nH]cn1)NC(=O)[C@@H]1CSSC[C@H](N)C(=O)N[C@@H](C(C)C)C(=O)N[C@@H](Cc2ccc(O)cc2)C(=O)N[C@@H](Cc2ccccc2)C(=O)N1)C(=O)N[C@H](C(=O)N[C@@H](Cc1c[nH]c2ccccc12)C(=O)O)[C@@H](C)CC` (H-CVYFCHLDIIW-OH; disulfide 1-5), the IC50 stood at 1700 nM in assay [1], 6500 nM at Endothelin-1 receptor and 2.2 µM in the assay listed under Rattus norvegicus.
